From patent US8389027B2 (priority 2008, dated 2013)

How the values were obtained:
[1] = test system: S. pombe strain expressing M. grisea Abc3 (MBY 2838); assay type: cell-based, Schizosaccharomyces pombe; conditions: MBY 2838, compound in growth medium
Zebra fish larvae heart = assay type: in vivo, Danio rerio; conditions: at 26 (h of treatment); control 12.71
wild-type S. pombe [2] = assay type: cell-based, Schizosaccharomyces pombe
wild-type S. pombe [3] = test: Estimation of minimum inhibitory concentration for S. pombe; assay type: cell-based, Schizosaccharomyces pombe; conditions: different concentrations, 6 h incubation
Procedure: Approximately, 1×10^7 cells/ml from overnight grown culture of MBY 104 was inoculated in 20 ml fresh YES medium in 250 ml flasks. The cells were incubated at 25° C. on a shaker in absence or presence of different concentrations of digoxin. A stock of 1 mM standard glycosides (Sigma Aldrich, USA) was prepared by adding 7.8 mg, 3.9 mg, and 7.28 mg of digoxin, digoxigenin, and ouabain, respectively, in 10 ml of 50% ethanol. A working stock of 200 μM solution was prepared by diluting 1 mM stock with fresh YES medium. Further dilutions were made from this working stock by adjusting total volume with YES to 20 ml. Cell density of untreated or treated wild-type yeast cells was checked in terms of absorbance after every one hour over 5 to 6 generations. Experiments were performed in duplicate each time and confirmed by several biological replicates.
Wild-type S. pombe cells were grown in absence or presence of different concentrations of digoxin, digoxigenin, or ouabain and growth kinetics was studied over 6-8 h.

[4] = test system: wild-type M. grisea Guy11 on rice leaf sheath or onion epidermis; assay type: in vivo, Magnaporthe grisea; conditions: summary statement
[5] = test system: rice or barley leaf tissue; assay type: in vivo
[6] = test system: Magnaporthe Guy11 on detached barley leaf; assay type: in vivo, Magnaporthe grisea; conditions: 200 μM

## C[C@H]1O[C@@H](O[C@H]2[C@@H](O)C[C@H](O[C@H]3[C@@H](O)C[C@H](O[C@H]4CC[C@@]5(C)[C@H](CC[C@@H]6[C@@H]5C[C@@H](O)[C@]5(C)[C@@H](C7=CC(=O)OC7)CC[C@]65O)C4)O[C@@H]3C)O[C@@H]2C)C[C@H](O)[C@@H]1O [digoxin]
[1]
  effect on S. pombe cells expressing M. grisea Abc3p: did not show any effects
Zebra fish larvae heart
  heart rate (time taken for 20 beats): 13.79 s
wild-type S. pombe [2]
  cell density (OD600 nm) of S. pombe, growth kinetics: inhibitory effects
wild-type S. pombe [3]
  absorbance of treated S. pombe cells: decrease in absorbance in a dose dependent manner
[4]
  appressorial function of host penetration: blocked appressorial function of host penetration
[5]; exogenous application to leaf tissue
  elicitor-like response in the host plants: induced hypersensitive reaction
[5]; treated leaf tissue, 48 h
  H2O2 level as Cerium perhydroxide precipitate (CeCl3 staining, TEM): accumulation of Cerium perhydroxide precipitate in the cell wall and cell membrane
[5]; treated leaf tissue, TEM
  state of host cells upon treatment: plasmolysis
[6]; controls symptomatic from day 3
  disease symptoms on detached barley leaf: failed to elicit any disease symptoms
[6]; 6 dpi, 100 conidia per droplet
  disease symptoms, leaves inoculated with 100 conidia per droplet: did not show any symptoms
[6]; day 6 post inoculation
  severity of disease compared to control leaves: significantly reduced
